Data on one sequence can be found in patent publication US7687465B2, “Therapeutic cancer vaccine” (Kraeftens Bekaempelse, priority 2003, dated 2010).

This assay relates to PBL from HLA-A3 antigen positive melanoma patients. Nature of the assay: ELISPOT in PBL from HLA-A3 antigen positive melanoma patients. The class given is cell-based, human. As to the method:
T-cell response against the ML-IAP245-253 ([…]) peptide as measured in an ELISPOT in PBL from 14 melanoma patients. T-lymphocytes were stimulated once with peptide before plated in triplicates either without or with peptide. The average number of peptide specific cells (after subtraction of spots without added peptide) was calculated for each patient as the number of spot forming cells per 10^5 CD8 positive cells after subtraction of the number of background spots formed without addition of peptide using the ImmunoSpot® Series 2.0 Analyzer (CTL Analyzers, LLC, Cleveland, US).
To extend the sensitivity of the ELISPOT assay, PBL were stimulated once in vitro prior to analysis^17,18. At day 0, PBL or crushed lymph nodes were thawed and plated in 2 ml/well at a concentration of 2×10^6 cells in 24-well plates (Nunc, Denmark) in X-vivo medium (Bio Whittaker, Walkersville, Md.), 5% heat-inactivated human serum, and 2 mM of L-glutamine in the presence of 10 μM of peptide. […]
The ELISPOT assay used to quantify peptide epitope-specific interferon-γ-releasing effector cells was performed as described previously^19. […] The spots were counted using the AlphaImager System (Alpha Innotech, San Leandro, Calif. USA) and the peptide specific CTL frequency could be calculated from the numbers of spot-forming cells. […]

Take “RLQEERTCK (listed as Homo sapiens) [mL-IAP245-253]”: the “peptide specific T-cells per 10^5 CD8+ cells” value (in the five responding patients) was “more than 200 per 10^5 CD8+ cells”. Also, the “patients hosting an immune response against the peptide” value (of 14 HLA-A3 antigen positive melanoma patients, response of more than 200 specific T-cells per 10^5 CD8+ cells) is on record as “five”.
